Structures can show the parent of a compound that is named as a salt.
Key:
Human DYRK1A = target: T1, Human DYRK1A (Homo sapiens, UniProt Q13627); experiment: DYRK1A Kinase TR-FRET (IMAP-Tb) Assay; format: biochemical; conditions: TR-FRET (IMAP-Tb); ATP 70 μM; 37° C., 60 minutes; average of multiple runs; read-out: Enzyme IC50 (μM) DYRK1A
T1 construct: purchased Invitrogen PV3997
Text: DYRK1A Kinase TR-FRET (IMAP-Tb) Assay
The kinase TR-FRET (IMAP-Tb) assay uses a fluorescence labeled substrate peptide in the kinase reaction. Upon phosphorylation by the kinase, phosphopeptide is produced, which will be detected by the binding solution provided in IMAP TR-FRET binding kit. After the completion of the kinase reaction, the reaction will be stopped by adding the binding solution containing terbium tracer. This tracer is immobilized on the surface of the IMAP beads, which also contain metal ions on the beads that bind to the phospho-groups of the products. Thus the phosphorylated product of the reaction can enter into close proximity to the tracer, producing resonance energy transfer. Due to the long lifetime of terbium (Tb) fluorescence the detection can be run in time resolved mode, which virtually eliminates fluorescence interference from assay components or compounds.
The TR-FRET signal measurement from this assay, given as an IC50 measurement, is a measure of a test compound's ability to interfere with the phosphorylation of the peptide substrate, that is it inhibits the phosphorylation of the substrate peptide by DYRK1A, and is thus a measure of the test compound's ability to inhibit the activity of DYRK1A.
• 1. Human DYRK1A: from Invitrogen. Part #PV3997 • 2. Substrate Peptide: […] • 3. IMAP TR-FRET IPP Explorer Kit: from Molecular Devices. Part #R8157 • 4. Kinase Assay Buffer (KAB): 10 mM HEPES pH 7.0, 50 mM NaCl, 5 mM MgCl2, 1 mM DTT, 1 mM NaVO4, 200 μg/mL BSA (0.02%) • 5. Assay Plate: Remp polypropylene clear 384-well microplate. […] Detection Plate: Costa black 384-well microplate. […] Transfer 1.5 μL of 20× compound solution to each well of an assay plate. • 2. Add to each well 22.5 μL of KAB Buffer. • 3. Add to each well 3 μL of the solution of DYRK1A and ATP. […] Add to each well 3 μL of the substrate peptide. The assay concentration is 1.0 μM • 5. Incubate the assay plates at 37° C. for 60 minutes. • 6. Add 18 μL of Detection Solution (1:800 diluted Progress bead stock, 1:400 diluted Tb stock, 80% Buffer A, and 20% Buffer B) into each well of detection plates. • 7. Transfer 6 μL of assay solution from the assay plate to the detection plate. • 8. Shake detection plates for 30 minutes. • 9. Read plates in Envision with wavelength set at excitation 340 nm for Tb, emission 490 nm, and […].

[1] = tested on: SW620 human colon cancer cells; experiment: SW620 Cell Viability Assay; format: cell-based; conditions: SW-620, 96 h, 4 days incubation, CellTiter-Glo Luminescent Cell Viability Assay, read-out: Cellular EC50 (μM) SW620
Method: SW620 Cell Viability Assay
1. Cell Plate Preparation: SW620 human colon cancer cells (known to express DYRK1B), obtained from ATCC, were seeded into 96-well plates at 3×10^3 cells/well in 50 μL of media. • Harvested the required number of cells (counts & viability determined by Guava Viacount). • Centrifuge cells to pellet and removed supernant. • Resuspended in growth media (50 μL/well) & pipetted thoroughly to break up clumps. • Setup for ˜100 wells/plate, therefore, VT=5 mL/plate @ […]. 1A. Some cells (S—) were allowed to attach for 24 hrs, serum starved for 48 hrs, and then followed with drug treatments. Test compound solution were prepared in regular corresponding media supplemented with serum. 2. Test Compound Preparation: Test compounds were solubilized in either DMSO or media and prepared at various stock concentrations. • All compounds were incubated at 37° C. for 30 minutes and vortexed. • (5 mM stocks of test compound were prepared for non-soluble compounds)
• The 10 mM test compound stock was diluted to a concentration of 100× the final Cmax concentration. • Then the test compound stock is diluted 50-fold in media and/or second compound for a final Cmax concentration in the test compound plate. • The Cmax in the test compound plate (2% DMSO) is 2-fold higher than the final Cmax in the cell plate (60 uL titrations were 1:3). 4. Viability Assay: This assay was performed as follows: • Transfer 50 μL of test compound solution per well from the test compound plate onto the cell plate prepared in Step #1. • Mix the plate with treated cells by pipetting up and down three times with 200 μL multi-channel pipette. • Incubate the cells in 5% CO2 incubator @ 37° C. for 4 days. • Run the CellTiter-Glo™ Luminescent Cell Viability Assay.
The results of this assay, given as EC50 values, indicate the concentration of test compound that inhibits tumor cell proliferation by 50%.

Human DYRK1B = target: T2, Human DYRK1B (Homo sapiens, UniProt Q9Y463); experiment: DYRK1B Kinase TR-FRET (IMAP-Tb) Assay; format: biochemical; conditions: TR-FRET (IMAP-Tb); ATP 70 μM; 37° C., 60 minutes; average of multiple runs; read-out: Enzyme IC50 (μM) DYRK1B
T2 construct: purchased Invitrogen PR8350B (former PV4649)
Text: DYRK1B Kinase TR-FRET (IMAP-Tb) Assay The kinase TR-FRET (IMAP-Tb) assay uses a fluorescence labeled substrate peptide in the kinase reaction. Upon phosphorylation by the kinase, phosphopeptide is produced, which will be detected by the binding solution provided in IMAP TR-FRET binding kit. After the completion of the kinase reaction, the reaction will be stopped by adding the binding solution containing terbium tracer. This tracer is immobilized on the surface of the IMAP beads, which also contain metal ions on the beads that bind to the phospho-groups of the products. Thus the phosphorylated product of the reaction can enter into close proximity to the tracer, producing resonance energy transfer. Due to the long lifetime of terbium (Tb) fluorescence the detection can be run in time resolved mode, which virtually eliminates fluorescence interference from assay components or compounds. The TR-FRET signal measurement from this assay, given as an IC50 measurement, is a measure of a test compound's ability to interfere with the phosphorylation of the peptide substrate, that is it inhibits the phosphorylation of the substrate peptide by DYRK1B, and is thus a measure of the test compound's ability to inhibit the activity of DYRK1B. […] Human DYRK1B: from Invitrogen. Part #PR8350B (former PV4649) • 2. Substrate Peptide: in-house synthesized: RRRFRPASPLRGPPK • 3. IMAP TR-FRET IPP Explorer Kit: from Molecular Devices. Part #R8157 • 4. Kinase Assay Buffer (KAB): 10 mM HEPES pH 7.0, 50 mM NaCl, 5 mM MgCl2, 1 mM DTT, 1 mM NaVO4, 200 μg/mL BSA (0.02%) • 5. Assay Plate: Remp polypropylene clear 384-well microplate. Cat#23490-102 • 6. Detection Plate: Costa black 384-well microplate. Cat #3710 Assay Procedure: This assay was performed as follows: • 1. Transfer 1.5 μL of 20× compound solution to each well of an assay plate. • 2. Add to each well 22.5 μL of KAB Buffer. • 3. Add to each well 3 μL of the solution of DYRK1B and ATP. […] Add to each well 3 μL of the substrate peptide. The assay concentration is 1.0 μM • 5. Incubate the assay plates at 37° C. for 60 minutes. • 6. Add 18 μL of Detection Solution (1:800 diluted Progress bead stock, 1:400 diluted Tb stock, 80% Buffer A, and 20% Buffer B) into each well of detection plates. • 7. Transfer 6 μL of assay solution from the assay plate to the detection plate. • 8. Shake detection plates for 30 minutes. • 9. Read plates in Envision with wavelength set at excitation 340 nm for Tb, emission 490 nm, and […] 520 nm. • 10. Calculation: TR-FRET Signal=(Reading at […]/Reading at 490 nM)×2000000

T2 sequence (Q9Y463 whole entry): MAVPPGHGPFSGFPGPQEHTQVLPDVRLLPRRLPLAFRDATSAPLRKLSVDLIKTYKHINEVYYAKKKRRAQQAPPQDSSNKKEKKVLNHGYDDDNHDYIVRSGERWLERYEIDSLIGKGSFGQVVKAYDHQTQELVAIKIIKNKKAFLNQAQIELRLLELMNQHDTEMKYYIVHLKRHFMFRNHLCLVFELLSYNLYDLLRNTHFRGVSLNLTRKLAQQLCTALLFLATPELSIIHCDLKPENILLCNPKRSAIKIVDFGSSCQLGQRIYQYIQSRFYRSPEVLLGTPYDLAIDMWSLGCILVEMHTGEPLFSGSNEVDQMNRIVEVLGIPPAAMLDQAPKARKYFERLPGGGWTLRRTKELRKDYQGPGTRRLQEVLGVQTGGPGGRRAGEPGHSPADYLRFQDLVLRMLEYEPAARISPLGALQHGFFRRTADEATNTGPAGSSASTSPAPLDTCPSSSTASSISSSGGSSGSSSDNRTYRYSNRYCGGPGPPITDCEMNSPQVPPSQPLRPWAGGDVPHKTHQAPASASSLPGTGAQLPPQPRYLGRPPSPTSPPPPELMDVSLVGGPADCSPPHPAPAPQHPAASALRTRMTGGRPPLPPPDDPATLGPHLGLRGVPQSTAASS

SMILES	IC50 (Human DYRK1A)	EC50 [1]	IC50 (Human DYRK1B)
COc1cc2[nH]c(=O)c(C(=O)Nc3cc(C(=O)NC(CN)c4ccsc4)ccc3C)cc2cn1 (stereo not drawn) [Example 59, 7-Methoxy-2-oxo-1,2-dihydro-[1,6]naphthyridine-3-carboxylic acid [5-(2-amino-1-thiophen-3-yl-ethylcarbamoyl)-2-methyl-phenyl]-amide; hydrochloride]	0.0113 µM	0.299 µM	0.0308 µM
COc1cc2[nH]c(=O)c(C(=O)Nc3cc(C(=O)NC(CCN)c4ccccc4)ccc3C)cc2cn1 (stereo not drawn) [Example 61, 7-Methoxy-2-oxo-1,2-dihydro-[1,6]naphthyridine-3-carboxylic acid [5-(3-amino-1-phenyl-propylcarbamoyl)-2-methyl-phenyl]-amide; hydrochloride]	0.034 µM	2.27 µM	0.155 µM
COc1cc2[nH]c(=O)c(C(=O)Nc3cc(C(=O)NC(CCN)c4ccsc4)ccc3C)cc2cn1 (stereo not drawn) [Example 63, 7-Methoxy-2-oxo-1,2-dihydro-[1,6]naphthyridine-3-carboxylic acid [5-(3-amino-1-thiophen-3-yl-propylcarbamoyl)-2-methyl-phenyl]-amide]	0.0046 µM	0.205 µM	0.023 µM
COc1cc2[nH]c(=O)c(C(=O)Nc3cc(C(=O)NC(CCN)c4cccc(Cl)c4)ccc3C)cc2cn1 (stereo not drawn) [Example 65, 7-Methoxy-2-oxo-1,2-dihydro-[1,6]naphthyridine-3-carboxylic acid {5-[3-amino-1-(3-chloro-phenyl)-propylcarbamoyl]-2-methyl-phenyl}-amide; hydrochloride]	0.0974 µM	0.915 µM	0.21 µM
COc1cc2[nH]c(=O)c(C(=O)Nc3cc(C(=O)NC(CCN)c4cccc(Cl)c4)ccc3Cl)cc2cn1 (stereo not drawn) [Example 67, 7-Methoxy-2-oxo-1,2-dihydro-[1,6]naphthyridine-3-carboxylic acid {5-[3-amino-1-(3-chloro-phenyl)-propylcarbamoyl]-2-chloro-phenyl}-amide; hydrochloride]	0.00952 µM	0.103 µM	0.0854 µM
COc1cc2[nH]c(=O)c(C(=O)Nc3cc(C(=O)NC(CCN)c4ccccc4)ccc3Cl)cc2cn1 (stereo not drawn) [Example 69, 7-Methoxy-2-oxo-1,2-dihydro-[1,6]naphthyridine-3-carboxylic acid [5-(3-amino-1-phenyl-propylcarbamoyl)-2-chloro-phenyl]-amide; hydrochloride]	0.0124 µM	0.256 µM	0.0137 µM
COC(=O)c1ccc(Cl)c(NC(=O)c2cc3cnc(N4CCN(C)CC4)cc3[nH]c2=O)c1 [Example 73, 4-Chloro-3-{[7-(4-methyl-piperazin-1-yl)-2-oxo-1,2-dihydro-[1,6]naphthyridine-3-carbonyl]-amino}-benzoic acid methyl ester]	0.425 µM	> 10 µM	0.96 µM
COC(=O)c1ccc(Cl)c(NC(=O)c2cc3ccc(N4CCN(C)CC4)nc3[nH]c2=O)c1 [Example 88, 4-Chloro-3-{[7-(4-methyl-piperazin-1-yl)-2-oxo-1,2-dihydro-[1,8]naphthyridine-3-carbonyl]-amino}-benzoic acid methyl ester]	0.451 µM	1.53 µM	0.513 µM
COC(=O)c1ccc(Cl)c(NC(=O)c2cc3ccc(OC)nc3[nH]c2=O)c1 [Example 90, 4-Chloro-3-[(7-methoxy-2-oxo-1,2-dihydro-[1,8]naphthyridine-3-carbonyl)-amino]-benzoic acid methyl ester]	> 10 µM	> 10 µM	0.168 µM
COc1ccc2cc(C(=O)Nc3cc(C(=O)NCc4cccc(Cl)c4)ccc3Cl)c(=O)[nH]c2n1 [Example 95, N-(2-Chloro-5-(3-chlorobenzylcarbamoyl)phenyl)-7-methoxy-2-oxo-1,2-dihydro-1,8-naphthyridine-3-carboxamide]	0.019 µM	1.24 µM	0.047 µM
COc1ccc2cc(C(=O)Nc3cc(C(=O)NCc4cccc(Cl)c4)ccc3C)c(=O)[nH]c2n1 [Example 99, N-(5-(3-Chlorobenzylcarbamoyl)-2-methylphenyl)-7-methoxy-2-oxo-1,2-dihydro-1,8-naphthyridine-3-carboxamide]	0.123 µM	> 10 µM	0.235 µM
COc1ccc2cc(C(=O)Nc3cc(C(=O)NC(CCN)c4ccccc4)ccc3Cl)c(=O)[nH]c2n1 (stereo not drawn) [Example 101, N-(5-(3-Amino-1-phenylpropylcarbamoyl)-2-chlorophenyl)-7-methoxy-2-oxo-1,2-dihydro-1,8-naphthyridine-3-carboxamide]	0.0392 µM	0.0273 µM	0.0527 µM
